SMILES strings stand for the structures.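 Grown in 96-well plates, cells were treated for 48 hours with each compound at five concentrations. Insufficient inhibition: endpoint recorded as highest concentration tested. TGI: concentration producing complete growth inhibition.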 Some results are limits rather than exact numbers.

The values that follow come from PubChem BioAssay (NCI).

What all share (experiment): inhibition of tumour cell growth, NCI panel, 48 h
Assay [1] concerns DU-145 prostate.
Assay [2] has as its system HCC-2998 colon.
The subject of assay [3] is HCT-15 colon.
The subject of assay [4] is KM12 colon.
Assay [5] concerns MDA-MB-231 breast.
Assay [6] relates to MDA-MB-435.
Assay [7] has as its system NCI-H23 lung.
The test system of assay [8] is NCI-H522 lung.
Assay [9] deals with SN12C renal.
Assay [10] deals with SNB-19 CNS.
Assay [11] concerns SNB-75 CNS.
Assay [12] relates to SR leukemia.

As for `Clc1nc(Cl)nc(NC23CC4CC(CC(C4)C2)C3)n1`, the TGI in [1] is 31.3 µM; in assay [2], 41.2 µM; in [3], 31.7 µM; in assay [4] it was 32.2 µM; in assay [5], 36.7 µM; in assay [6], 34.4 µM. Besides, the TGI in [7] amounted to 34.1 µM; in assay [8] it was 30.9 µM; in [9], 35.2 µM; in assay [10], 40.3 µM; in [11], 36.5 µM; in [12], 47.7 µM.
For the compound `CC(=O)C(CN1CCCCC1)C(c1ccccc1)c1c(O)c2ccccc2oc1=O` (stereo not given), the TGI in assay [1], in assay [2], in [3], in assay [4], in assay [5] and in [6] was greater than 100 µM each time. Also, the TGI in assay [7], in assay [8], in assay [9], in [10], in [11] and in [12] was greater than 100 µM each time.
Consider `CC(=O)NC1C(OCc2ccccc2)OC(CO)C(O)C1OCC(=O)N[C@@H](C)C(=O)N[C@H](CCC(=O)NCCNCCNc1c2ccccc2nc2cccc([N+](=O)[O-])c12)C(N)=O` (stereo not given in full), for which the TGI in assay [1] is greater than 100 µM; in [2] it was 22.5 µM; in assay [3], greater than 100 µM; in assay [4] it was 78.5 µM; in assay [5], greater than 100 µM; in assay [6], 71.1 µM. For the same compound, the TGI in assay [7] was 35.3 µM; in assay [8], 28.1 µM; in assay [9], greater than 100 µM; in [10], greater than 100 µM; in assay [11], greater than 100 µM; in assay [12], greater than 100 µM.
As to `COc1ccc(N2C(=O)C3c4[nH]c5ccc([N+](=O)[O-])cc5c4C4CCC(C(C)(C)C)CC4C3C2=O)cc1` (stereo not given), the TGI is greater than 100 µM in assay [1]; greater than 100 µM in assay [2]; greater than 100 µM in assay [3]; greater than 100 µM in assay [4]; 36.5 µM in [5]; greater than 100 µM in [6]. Also, the TGI is 60.4 µM in assay [7]; greater than 100 µM in assay [8]; 76.9 µM in [9]; greater than 100 µM in assay [10]; greater than 100 µM in assay [11]; 8.56 µM in [12].
For `Cc1sc2nc3n(c(=O)c2c1C)N=CN(c1ccccc1)C3`, the TGI in assay [1], in assay [2], in [3], in assay [4], in [5] and in [6] was greater than 100 µM each time. The TGI in [7], in assay [8], in [9], in [10], in assay [11] and in [12] was greater than 100 µM throughout.
For `COC(=O)C1(Cc2ccccc2)Cc2cc3c(cc2C1=O)CCC3` (stereo not given), the TGI in assay [1] is greater than 100 µM; in assay [2], 9.64 µM; in assay [3], greater than 100 µM; in assay [4], 81.6 µM; in assay [5], greater than 100 µM; in [6], 36.9 µM. Also, the TGI in assay [7] was greater than 100 µM; in assay [8], 64.2 µM; in [9], greater than 100 µM; in assay [10], greater than 100 µM; in assay [11] it was greater than 100 µM; in [12], 47.2 µM.
On to `COc1ccc(Nc2[nH]c(C(C)=O)c(N)c2C(=S)Nc2ccccc2)cc1`, for which the TGI in assay [1], in assay [2], in assay [3], in assay [4], in [5] and in assay [6] was greater than 100 µM throughout. In addition, the TGI in [7], in [8], in assay [9], in assay [10], in [11] and in assay [12] was greater than 100 µM throughout.
Take `CCOC(=O)c1sc2nc(SC)nc3c2c1N=CN3c1ccc(Br)cc1`: the TGI in assay [1], in assay [2], in assay [3], in [4], in assay [5] and in [6] was greater than 100 µM each time. For the same compound, the TGI in assay [7], in assay [8], in [9], in assay [10], in [11] and in assay [12] was greater than 100 µM in each case.
For the compound `O=C1CC2C=CC(O)C(C1)C2` (stereo not given), the TGI in assay [1], in assay [2], in assay [3], in assay [4], in [5] and in [6] was greater than 100 µM in each case. Besides, the TGI in [7], in [8], in [9], in assay [10], in assay [11] and in assay [12] was greater than 100 µM throughout.
On to `Cc1c(Cl)ccc2c(=O)c3cccc(CC(=O)O)c3oc12`, for which the TGI in assay [1], in assay [2], in assay [3], in [4], in assay [5] and in [6] was greater than 100 µM each time. Besides, the TGI in assay [7], in assay [8], in [9], in assay [10] and in assay [12] was greater than 100 µM each time.
Turning to `Cc1c(/C=N\NC(=S)N2CCN(C(=S)N/N=C\c3c(C)n(C)n(-c4ccccc4)c3=O)CC2)c(=O)n(-c2ccccc2)n1C`, the TGI in [1] is greater than 100 µM; in [2], greater than 100 µM; in [3] it was greater than 100 µM; in assay [4], greater than 100 µM; in assay [5], 73.9 µM; in assay [6] it was 64.7 µM. In addition, the TGI in assay [7] is greater than 100 µM; in [8], greater than 100 µM; in assay [10] it was greater than 100 µM; in assay [11], 48.7 µM; in [12] it was greater than 100 µM.
